Reference: ChEMBL document CHEMBL3091278 (Bioorg Med Chem Lett, 2013)

Test: Inhibition of Clostridium perfringens carbonic anhydrase preincubated for 15 mins by stopped flow CO2 hydration assay

Compound	Ki [mM]
CC(=O)Nc1nnc(S(N)(=O)=O)s1 [ACETAZOLAMIDE]	4.9e-05
CCN(CC)C(=S)S [DITIOCARB SODIUM]	0.36
O=[As](O)(O)c1ccccc1 [PHENYLARSONIC ACID]	0.007
OB(O)c1ccccc1 [PHENYLBORONIC ACID]	0.075
[N-]=[N+]=[N-] [SODIUM AZIDE]	4.2
O=C([O-])O.[Na+] [SODIUM BICARBONATE]	2.1
O=S([O-])O.[Na+] [SODIUM BISULFITE]	4.9
[Br-].[Na+] [SODIUM BROMIDE]	21.5
O=C([O-])[O-].[Na+].[Na+] [SODIUM CARBONATE]	0.65
S=C(S)S [SODIUM CARBONOTRITHIOATE]	1
[Cl-].[Na+] [SODIUM CHLORIDE]	4.3
[F-].[Na+] [SODIUM FLUORIDE]	4.8
S [SODIUM HYDROSULFIDE]	4
O=S(=O)(O)ONOS(=O)(=O)O [SODIUM IMINODISULFATE]	4.9
[I-].[Na+] [SODIUM IODIDE]	63.4
N=C=S [SODIUM ISOTHIOCYANATE]	0.83
O=[N+]([O-])[O-].[Na+] [SODIUM NITRATE]	4.6
O=NO [SODIUM NITRITE]	4.1
[O-][Cl+3]([O-])([O-])O [SODIUM PERCHLORATE]	> 200
O=S(=O)(O)OOS(=O)(=O)O [SODIUM PERSULFATE]	9.2
O=P(O)(O)OP(=O)(O)O [SODIUM PYROPHOSPHATE]	2.7
O=[Se](=O)(O)O [SODIUM SELENATE]	0.47
O=S(=O)([O-])[O-].[Na+].[Na+] [SODIUM SULFATE ANHYDROUS]	7.9
O=[Te](=O)(O)O [SODIUM TELLURATE]	3.3
O=BOB(O)OB(O)OB=O [SODIUM TETRABORATE]	2.5
F[B-](F)(F)F.[Na+] [SODIUM TETRAFLUOROBORATE]	> 200
NS(=O)(=O)O [SULFAMATE]	0.009
